From patent US20070042056A1, “Anti-stress agent” (priority 2003, published 2007)

Experiments:
[1] = tested on: GABA receptor; test: In vitro GABA receptor-activating activity, Xenopus oocyte expressing GABA receptor, voltage clamp; type: cell-based, rat; details: for GABA response to GABA receptor, relative value of inhibitory potential vs GABA only (set at 100%): GABA 5 μM
Procedure: As an experimental material, an oocyte of Xenopus was used. A rat-derived GABA receptor mRNA was injected into the nucleus of an oocyte to express GABA receptor on the surface of the egg. The oocyte was cultured in a normal Ringer's solution for frog (115 mM NaCl, 1 mM KCl, 1.8 mM CaCl2, 5 mM Tris, pH 7.2). Using the resulting oocyte, inhibitory potential of GABA (10 μM) and inhibitory potential of a mixed solution of GABA (10 μM) and the below mentioned sample were measured. Generation of inhibitory potential was measured by voltage clamp method using a voltage clamping amplifier (CEZ-1100; manufactured by NIHON KODEN CORPORATION).
As a sample, the following 9 kinds of aroma components contained in coffee or teas were used in a concentration of 2 μl/ml. Samples used are as follows: 2-methyl-3-buten-2-ol (expressed by 2-M3BOL in FIG. 1), 3-methyl-2-buten-1-ol (expressed by 3-M2BOL in FIG. 1), 1-penten-3-ol (expressed by 1-POL in FIG. 1), (E)-2-hexen-1-ol (expressed by HXOL in FIG. 1), 1-octen-3-ol (expressed by 1-OCOL in FIG. 1), sotolone (expressed by STOL in FIG. 1), 2,4-dimethylstyrene (expressed by 2,4-DMS in FIG. 1), benzothiazole (expressed by BZT in FIG. 1) and 2,3,5-trimethylphenol (expressed by 2,3,5-TEP in FIG. 1). The aforementioned samples used in the experiment were commercially available products. That is, sotolone manufactured by Ogawa & Co., Ltd. and other compounds manufactured by Tokyo Kasei Co., Ltd. were used.
As an index, enhancing activity of the sample on inhibitory potential induced by GABA was used. The results are expressed by % increase of the inhibitory potential when GABA and a sample were used in combination, relative to the inhibitory potential generated when only GABA (0.25 μM) was added (set at 100%).
Dose dependency of 1-octen-3-ol which had been recognized to have a strong activity in Example 1 was studied. The experimental procedures were entirely the same as those of Example 1. The concentration of GABA was 5 μM, and the concentration of 1-octen-3-ol was 0.3 to 1 mM. […] The results shown in FIG. 2 are expressed by the relative value of the inhibitory potential when GABA and 1-octen-3-ol were used in combination, compared to the inhibitory potential generated when only GABA (5 μM) was added (set at 100%).
As an experimental material, an oocyte of Xenopus was used. A rat-derived GABA receptor mRNA was injected into the nucleus of an oocyte to express GABA receptor on the surface of an egg. The oocyte was cultured in a normal Ringer's solution for frog (115 mM NaCl, 1 mM KCl, 1.8 mM CaCl2, 5 mM Tris, pH 7.2). Generation of the inhibitory potential induced by GABA (0.25 μM) was measured by voltage clamp method using a voltage clamping amplifier (CEZ-1100; manufactured by Nihon Koden corporation).
As samples, the below-mentioned 4 kinds of aroma components of oolong tea were used in a concentration of 0.5 mM. The samples used are as follows: cis-jasmone, methyl jasmonate, jasmine lactone and linalool oxide.
Dose dependency of cis-jasmone and methyl jasmonate which had been recognized to have a strong activity in Example 4 was studied. The experimental procedures were entirely the same as those of Example 4. The concentration of GABA was 5 μM, and the concentrations of cis-jasmone and methyl jasmonate were 0.2 to 1 mM. […] The results shown in FIG. 5 are expressed by the relative value of the inhibitory potential when GABA and cis-jasmone and methyl jasmonate were used in combination compared to the inhibitory potential generated when only GABA (5 μM) was added (set at 100%).

[2] = tested on: ddy male mice; test: Enhancing activity on pentobarbital-induced sleep (duration of the sleeping time); type: in vivo
Procedure: (§1) As a test animal, ddy male mice (8-week age) were purchased from Shimizu Laboratory Supplies Co., Ltd., pre-bred for one week and used in the experiment. Each five of the mice were bred in a polyisopentene cage (manufactured by Clea Japan. Inc.) in a breeding chamber where the breeding conditions were set at room temperature of 23±2° C., humidity of 55±5%, ventilation frequency of 12 to 15/hour (all fresh air ventilation), and lighting hours of 12 hours/day (from 7 a.m. to 7 p.m.). The mice were fed solid feed CE-2 (Clea Japan Inc.) and were allowed free access to water.
1-Octen-3-ol dissolved in olive oil was orally administered to a mouse at a dose of 20 or 100 mg/kg. In each group, 8 mice were used. Thirty minutes later, pentobarbital dissolved in physiological saline was intraperitoneally administered at a dose of 50 mg/kg, and duration of the sleeping time was measured. The sleeping time was defined as the time period from the loss of righting reflex until its recovery.
The experimental results shown in FIG. 3 are expressed by average±standard error, and Student t-test was used in a significant difference test.
as §1, with “Co.,” for “Co., Ltd.,”, “one week,” for “one week”, “air ventilation)” for “air ventilation),”, “12 hours a day” for “12 hours/day”, “(Clea Japan.” for “(Clea Japan”
A mouse was made to aspirate cis-jasmone and methyl jasmonate diluted to 0.1% in an exposure box until the completion of the experiment. In each group, 5 mice were used. Thirty minutes after initiation of aspiration, pentobarbital dissolved in physiological saline was intraperitoneally administered at a dose of 50 mg/kg, and duration of the sleeping time was measured. […]

[3] = tested on: rat; details: cited from earlier work; for development of gastric ulcer: cold-restraint stress (4° C., 2 hours), intraventricular administration
[4] = 1998-1999 Scientific Research Subsidy Research Outcome Report; cited from earlier work
[5] = tested on: GABA receptor; details: Biosci. Biotechnol. Biochem., 63, 743-748, 1999; cited from earlier work
[6] = Example 4, FIG. 4, sample 0.5 mM, GABA 0.25 μM
[7] = Example 5, FIG. 5, sample 0.2 to 1 mM
[8] = Example 6, FIG. 6, aspiration of sample diluted to 0.1% in exposure box, pentobarbital 50 mg/kg i.p. after 30 min

Structure (SMILES): C=CC(O)CCCCC (centres unmarked) [1-octen-3-ol]
- enhancing activity of the sample on inhibitory potential induced by GABA ([1]; Example 1, FIG. 1, sample 2 μl/ml, GABA 10 μM / 0.25 μM): strong activity to enhance the response
- GABA response to GABA receptor, relative value of inhibitory potential vs GABA only (set at 100%) ([1]; Example 2, FIG. 2, 1-octen-3-ol 0.3 to 1 mM): up to 400%
- duration of the sleeping time induced by pentobarbital ([2]; Example 3, FIG. 3, orally 20 or 100 mg/kg in olive oil, 30 min before pentobarbital 50 mg/kg i.p.): extended duration of the sleeping time induced by pentobarbital in a dose dependent manner

Structure (SMILES): NCCCC(=O)O [GABA]
- development of gastric ulcer [3]: suppressed in a dose dependent manner

Structure (SMILES): NCc1cc(=O)[nH]o1 [Muscimol]
- development of gastric ulcer [3]: suppressed in a dose dependent manner

Structure (SMILES): CN1CCc2cc3c(cc2[C@H]1[C@@H]1OC(=O)c2c1ccc1c2OCO1)OCO3 [bicuculine]
- effect on the inhibitory effect of GABA on stress ulceration ([3]; cold-restraint stress, bicuculine 40 μg): diminishes the inhibitory effect of GABA on stress ulceration

Structure (SMILES): CC/C=C\CC1=C(C)CCC1=O [cis-jasmone]
- enhancing activity of the sample on inhibitory potential induced by GABA [1, 6]: activity to enhance the response
- GABA response to GABA receptor, relative value of inhibitory potential vs GABA only (set at 100%) [1, 7]: up to 200%
- duration of the sleeping time induced by pentobarbital [2, 8]: significantly extended duration of the sleeping time

Structure (SMILES): CCCCCCO [hexanol]
- stress relaxing activity [4]: stress relaxing activity
- GABA receptor-activating activity [5]: has GABA receptor-activating activity

Structure (SMILES): CC/C=C\CC1C(=O)CCC1CC(=O)OC (centres unmarked) [methyl jasmonate]
- enhancing activity of the sample on inhibitory potential induced by GABA [1, 6]: activity to enhance the response
- GABA response to GABA receptor, relative value of inhibitory potential vs GABA only (set at 100%) [1, 7]: ≤ 300%
- duration of the sleeping time induced by pentobarbital [2, 8]: significantly extended duration of the sleeping time
